The test system of one data set is HEK293 cells. Description: Access to the cell interior of fluorescent peptides, fluorescence microscopy. It is filed as cell-based. The conditions noted are these: 24 hours, 10 µM, green fluorescent signal.
Data set [1] can be described thus: Conformational study by circular dichroism (helicity). Format: physicochemical. The conditions noted are these: for Helicity in 60:40 H2O/TFE (%) / Helicity in H2O (%): circular dichroism, 10 µM, 5°C. As for the experimental part: Circular dichroism spectra were recorded in aqueous solution and in a 60:40 H2O:trifluoroethanol (TFE) mixture. The concentration used was 10 µM and the temperature (T) was adjusted to 5°C. Measurements were made between 190 and 250 nm using a 0.1 cm optical pitch cell. The experiments were carried out at a scanning rate of 50 nm/min, a response time of 2 s and a bandwidth of 1 nm. The spectra obtained are the average of 4 sweeps to which the baseline was corrected.
To calculate helicity, the equation [θ]222/[θ]max. was used, where [θ]max = (-44000+250T) ([…]). As a finite length correction value (k), the value of k = 4 was taken, while n refers to the number of residues in the peptides. Table 6. Helicity observed by circular dichroism for the peptides studied.
(In general: CD spectra are sensitive to the conformation of chiral molecules.)

The nature of data set [2]: Stability in human blood serum, UPLC-MS. It is filed as in vitro ADME. The conditions noted are these: 37°C. As for the experimental part: A 1 mM dilution of the peptide in water was prepared and 0.5 ml was taken and mixed with 0.5 ml of human serum. The resulting solution was incubated for 72 hours at 37°C. After 24 hours and 72 hours, 120 µl aliquots were taken and treated with 20 µl trifluoroacetic acid to precipitate the proteins. After 30 minutes at 4°C, the mixture was centrifuged at 13000 g and 4°C. The supernatant, once filtered, was analysed by UPLC-MS using a C18 Bridge column (3.0 mm x 50 mm, 2.5 µm) and a gradient of 15 and 50% CH3CN (0.1% formic acid) in H2O (0.1% formic acid) over 5 minutes.

For another data set, the target named is T1, human Nav1.5 channels (Homo sapiens, UniProt Q14524).
T1 construct: expressed in transfected cells; host or cells: CHO (Chinese hamster ovary) cells
T1 sequence (Q14524 1-2015 isoform Q14524-2): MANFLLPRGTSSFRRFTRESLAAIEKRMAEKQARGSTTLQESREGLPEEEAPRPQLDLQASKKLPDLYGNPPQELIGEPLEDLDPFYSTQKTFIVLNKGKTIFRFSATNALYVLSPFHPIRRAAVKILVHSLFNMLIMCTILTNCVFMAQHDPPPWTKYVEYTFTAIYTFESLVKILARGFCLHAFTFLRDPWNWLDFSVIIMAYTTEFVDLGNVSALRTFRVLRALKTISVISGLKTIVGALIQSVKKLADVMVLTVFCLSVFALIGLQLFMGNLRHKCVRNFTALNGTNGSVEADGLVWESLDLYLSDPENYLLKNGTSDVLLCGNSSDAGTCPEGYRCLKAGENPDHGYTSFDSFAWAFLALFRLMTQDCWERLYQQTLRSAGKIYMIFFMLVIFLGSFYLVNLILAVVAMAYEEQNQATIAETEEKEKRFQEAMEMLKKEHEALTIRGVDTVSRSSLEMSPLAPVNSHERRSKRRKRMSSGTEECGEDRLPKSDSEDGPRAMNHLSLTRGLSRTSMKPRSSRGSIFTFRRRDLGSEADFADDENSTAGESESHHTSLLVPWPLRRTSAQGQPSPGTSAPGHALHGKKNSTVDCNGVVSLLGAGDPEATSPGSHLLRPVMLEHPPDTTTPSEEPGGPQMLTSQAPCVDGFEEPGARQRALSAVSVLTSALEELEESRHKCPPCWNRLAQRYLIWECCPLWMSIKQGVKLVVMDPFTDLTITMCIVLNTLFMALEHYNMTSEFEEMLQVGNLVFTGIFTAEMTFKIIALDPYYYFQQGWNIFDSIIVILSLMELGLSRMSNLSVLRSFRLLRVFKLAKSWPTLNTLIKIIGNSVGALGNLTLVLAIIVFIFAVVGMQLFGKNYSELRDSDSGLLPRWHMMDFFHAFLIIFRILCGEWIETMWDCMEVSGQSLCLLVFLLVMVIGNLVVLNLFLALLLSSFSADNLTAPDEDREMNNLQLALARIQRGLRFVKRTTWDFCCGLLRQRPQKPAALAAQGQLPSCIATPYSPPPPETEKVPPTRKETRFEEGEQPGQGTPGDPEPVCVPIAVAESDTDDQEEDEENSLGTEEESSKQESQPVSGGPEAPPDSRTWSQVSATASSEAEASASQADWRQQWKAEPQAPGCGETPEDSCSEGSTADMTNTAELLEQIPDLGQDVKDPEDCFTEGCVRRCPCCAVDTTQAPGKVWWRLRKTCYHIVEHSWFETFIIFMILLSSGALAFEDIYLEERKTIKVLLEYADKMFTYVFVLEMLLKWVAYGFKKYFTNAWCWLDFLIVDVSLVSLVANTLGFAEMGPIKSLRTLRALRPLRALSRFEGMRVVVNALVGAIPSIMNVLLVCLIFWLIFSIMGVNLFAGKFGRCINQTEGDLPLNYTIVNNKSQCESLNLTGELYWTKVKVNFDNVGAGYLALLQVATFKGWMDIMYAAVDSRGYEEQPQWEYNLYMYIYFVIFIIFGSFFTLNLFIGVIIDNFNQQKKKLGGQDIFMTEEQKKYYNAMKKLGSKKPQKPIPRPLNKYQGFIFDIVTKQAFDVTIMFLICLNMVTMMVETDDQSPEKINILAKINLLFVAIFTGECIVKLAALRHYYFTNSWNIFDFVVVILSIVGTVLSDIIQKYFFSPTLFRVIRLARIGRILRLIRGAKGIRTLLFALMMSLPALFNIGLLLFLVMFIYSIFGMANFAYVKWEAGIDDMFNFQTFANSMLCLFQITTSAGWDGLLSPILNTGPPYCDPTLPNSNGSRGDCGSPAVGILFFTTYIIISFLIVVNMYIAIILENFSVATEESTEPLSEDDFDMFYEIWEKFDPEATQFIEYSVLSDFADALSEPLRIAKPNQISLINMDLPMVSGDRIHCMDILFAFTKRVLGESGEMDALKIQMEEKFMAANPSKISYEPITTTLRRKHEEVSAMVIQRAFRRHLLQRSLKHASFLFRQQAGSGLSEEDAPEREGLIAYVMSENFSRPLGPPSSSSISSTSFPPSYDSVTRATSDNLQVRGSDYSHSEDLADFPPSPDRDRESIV
Description: INa density, whole-cell patch-clamp in CHO cells co-transfected with Nav1.5 and the cDNA encoding the peptide. Format: cell-based. The conditions noted are these: vs. cells transfected only with Nav1.5 channels, various membrane potentials, P<0.05. As for the experimental part:
(§1) To analyse the effect of the peptides designed in example 1 on INa and IK1, the cDNA that encodes SEQ ID NO: 3 or SEQ ID NO: 4, described in SEQ ID NO: 5 and 20, respectively, was cloned into a pcDNA3.1^(+)® vector (Invitrogen) for transfection of Chinese hamster ovary (CHO) cells that were in turn transfected with the cDNA that encodes the human Nav1.5 channels (SEQ ID NO: 21). The CHO cells were further co-transfected with the EBO-pcD leu 2 vector (0.5 µg), which encodes the expression of the CD8 surface antigen. The subsequent addition of anti-CD8 antibody, bonded to Dynabeads M450® microspheres, allowed the cells that had been transfected to be identified. […] The currents were recorded at 20-22°C using an Axopatch 200B amplifier, filtered at half the sampling frequency and stored in a computer for further analysis. […] The capacitive current artefacts generated after the application of pulses from 0 mV to +10 mV were recorded at 50 kHz (filtered at 10 kHz) to calculate the capacitance of the cell, the access resistance and the input impedance. […] INa was recorded by applying 50 ms pulses from a holding potential of -120 mV to potentials between -80 and +50 mV in 5 mV increments. […]

In data set [3] the test system is human cardiac Nav1.5 channels. Description: INa by whole-cell patch-clamp in CHO cells incubated with synthetic peptide. It is filed as cell-based. As to conditions: CHO cells expressing Nav1.5, incubated 24 hours, 10 µM, vs untreated control cells. How it is done: as §1
A general note: Patch clamp records ionic current or voltage across a cell membrane.

Where a SMILES comes first, the peptide text is derived from it. The star is where a group is joined. FITC = O=C1OC2(c3ccc(O)cc3Oc3cc(O)ccc32)c2ccc(NC(=S)*)cc21; Palmitoyl = CCCCCCCCCCCCCCCC(=O)*

Results on 8 compounds are retold here after patent EP4786486A1, “PEPTIDES FOR TREATING CARDIAC DISEASES” (Universidad Complutense De Madrid, priority 2023, dated 2025).

As to `CC[C@H](C)[C@H](NC(=O)[C@H](C)NC(=O)[C@H](C)NC(=O)[C@H](CC(C)C)NC(=O)[C@H](CO)NC(=O)[C@H](CCC(=O)O)NC(=O)[C@H](CCCNC(=N)N)NC(=O)[C@@H](NC(=O)[C@H](Cc1ccccc1)NC(=O)[C@H](CCCNC(=N)N)NC(C)=O)[C@@H](C)O)C(=O)N[C@@H](CCC(=O)O)C(=O)N[C@@H](CCCCNC(=S)Nc1ccc2c(c1)C(=O)OC21c2ccc(O)cc2Oc2cc(O)ccc21)C(N)=O` [Ac-SEQ ID NO: 23(SF)-NH2, Ac-RFTRESLAAlEK(SF)-NH2] (Ac-RFTRESLAAIEK(FITC)-NH2), in the data set on HEK293 cells, the “ability to penetrate into the cell interior” value is listed as “not able to penetrate”. With `CCCCCCCCCCCCCCCC(=O)N[C@@H](CCCNC(=N)N)C(=O)N[C@@H](Cc1ccccc1)C(=O)N[C@H](C(=O)N[C@@H](CCCNC(=N)N)C(=O)N[C@@H](CCC(=O)O)C(=O)N[C@@H](CO)C(=O)N[C@@H](CC(C)C)C(=O)N[C@@H](C)C(=O)N[C@@H](C)C(=O)N[C@H](C(=O)N[C@@H](CCC(=O)O)C(=O)N[C@@H](CCCCNC(=S)Nc1ccc2c(c1)C(=O)OC21c2ccc(O)cc2Oc2cc(O)ccc21)C(N)=O)[C@@H](C)CC)[C@@H](C)O` [Pal-SEQ ID NO: 23(SF)-NH2, Pal-RFTRESLAAIEK(SF)-NH2] (Palmitoyl-RFTRESLAAIEK(FITC)-NH2), the “ability to penetrate into the cell interior” value in the data set on HEK293 cells is “good ability to penetrate”. Take “Ac-FTRESLAAIEK-NH2 [Ac-SEQ ID NO: 25-NH2, Ac-FTRESLAAIEK-NH2]”: in data set [1], the “Helicity in 60:40 H2O/TFE (%)” value was determined as 46.2% and the “Helicity in H2O (%)” value amounted to 10.7%. Further, the “increase in helicity in H2O” value in data set [1] (compared with Ac-SEQ ID NO: 3-NH2) came to 8%. Consider “Ac-FTRESLAAIEKR-NH2 [Ac-SEQ ID NO: 26-NH2, Ac-FTRESLAAIEKR-NH2]”, for which the remaining at 24 h, 0.5 mM in data set [2] (human blood serum diluted 50:50 with water, human blood serum/H2O (50:50), after 24 hours of incubation, read-out: peptide remained unchanged) is 82%. For the same compound, in data set [2] (human blood serum, estimated taking into account serum concentration of 50%), the half-life (as a rule, how long it takes for the measured level to halve) is 27 h. In data set [1], the “Helicity in 60:40 H2O/TFE (%)” value is recorded as 35.5% and the “Helicity in H2O (%)” value is 10.8%.

Turning to “Ac-RFTRESLAAIE-NH2 [Ac-SEQ ID NO: 3-NH2, Ac-RFTRESLAAIE-NH2]”, in data set [1], the “Helicity in 60:40 H2O/TFE (%)” value turned out to be 32.3% and the “Helicity in H2O (%)” value was determined as 2.7%. Turning to “EKRMAEKQARGSTTL (listed as Homo sapiens) [SEQ ID NO: 4, 15-amino acid peptide, amino acids 25-39 of human Nav1.5]”, the “density of INa” value with human Nav1.5 channels was “did not”. Take “Pal-FTRESLAAIEK-NH2 (Palmitoyl-FTRESLAAIEK-NH2; SMILES CCCCCCCCCCCCCCCC(=O)N[C@@H](Cc1ccccc1)C(=O)N[C@H](C(=O)N[C@@H](CCCNC(=N)N)C(=O)N[C@@H](CCC(=O)O)C(=O)N[C@@H](CO)C(=O)N[C@@H](CC(C)C)C(=O)N[C@@H](C)C(=O)N[C@@H](C)C(=O)N[C@H](C(=O)N[C@@H](CCC(=O)O)C(=O)N[C@@H](CCCCN)C(N)=O)[C@@H](C)CC)[C@@H](C)O) [Pal-SEQ ID NO: 25-NH2]”: in data set [3], the INa result is listed as “statistically significantly increase INa”. With “Pal-RFTRESLAAIEK-NH2 (Palmitoyl-RFTRESLAAIEK-NH2; SMILES CCCCCCCCCCCCCCCC(=O)N[C@@H](CCCNC(=N)N)C(=O)N[C@@H](Cc1ccccc1)C(=O)N[C@H](C(=O)N[C@@H](CCCNC(=N)N)C(=O)N[C@@H](CCC(=O)O)C(=O)N[C@@H](CO)C(=O)N[C@@H](CC(C)C)C(=O)N[C@@H](C)C(=O)N[C@@H](C)C(=O)N[C@H](C(=O)N[C@@H](CCC(=O)O)C(=O)N[C@@H](CCCCN)C(N)=O)[C@@H](C)CC)[C@@H](C)O) [Pal-SEQ ID NO: 23-NH2]”, in data set [3], the INa entry is given as “statistically significantly increase INa”.
